Entries after “also recorded” stand apart in the source; their conditions may differ.

Series [1] has as its system human foreskin and dermal fibroblasts. Put plainly: Reprogramming of human fibroblasts: colonies with human ES like morphology. The format is cell-based. As for the experimental part:
(§1) Mouse fibroblasts were isolated from Oct4-GFP, Rosa26-LacZ and Hdac2^flax/flax embryos at E13.5 and cultured in fibroblast medium as described (Takahashi et al., 2007). Hdac2 was excised by infection of Hdac2^flax/flax MEFs with adeno-cre virus. Human dermal fibroblast were cultured in DMEM/F12, 15% FBS, penicillin/streptomycin and L-glutamine. Viral particles were generated by transfection of plated 293T cells with pLOVE vectors encoding miR302/367, Oct4, Sox2, Klf4, or N-myc along with pMD.G and psPAX2 vectors as described (Blelloch et al., 2007). Supernatant from the transfected cells were collected every 24 hr for 48 hrs and titered. The titered viral suspension was mixed with 0.5 μl (0.1 of 10 μg/mL polybrene (American Bioanalytical, MA) per milliliter of viral suspension and used to infect fibroblasts. After viral infection, mouse fibroblast were cultured in mouse ES medium supplemented with or without valproic acid at a final concentration of 2 mM for the indicated length of time. Infected human fibroblast were culture in human ES medium as described (Huangfu et al., 2008a; Takahashi et al., 2007).

The subject of a further series is Hdac1. Put plainly: Western blot for Hdac1 in MEFs. The format is cell-based, mouse. The conditions noted are these: MEFs during miR302/367 reprogramming. The procedure:
(§2) Total cell lysates were prepared for Western blotting as previously described (Trivedi et al., 2008). Equal amounts of protein were resolved by SDS-PAGE and transferred to polyvinylidenedifluoride membranes. Membranes were incubated with Hdac1 antibody (1:1000 dilution, Cell Signaling), Hdac2 antibody (1:1000 dilution, Invitrogen) or Hdac3 antibody (1:1000 dilution, Sigma). Primary antibody binding was visualized by HRP-conjugated secondary antibody and detected by enhanced chemiluminescence (LumiGlo, Cell Signaling). For loading control, membranes were reprobed with primary antibody against GAPDH (1:2500 dilution, Abeam).
In general terms: A western blot detects proteins with antibodies after separation by electrophoresis.

In a further series the test system is Hdac2. Put plainly: Western blot for Hdac2 in MEFs. The conditions noted are these: MEFs during miR302/367 reprogramming. Type of series: cell-based, mouse. As for the experimental part: as §2
The next series concerns Hdac3. The series is described as follows: Western blot for Hdac3 in MEFs. The conditions noted are these: MEFs during miR302/367 reprogramming. The format is cell-based, mouse. As for the experimental part:
as §2

In a further series the test system is MEFs. Put plainly: CellTiter proliferation assay for MEFs. The conditions noted are these: wild-type and Hdac2-/- MEFs. Type of series: cell-based, mouse. As for the experimental part:
Proliferation assays for MEFs were performed using the CellTiter 96 Aqueous One Solution Cell Proliferation kit (Promega, Inc.). 20 μl of CellTiter Reagent, which functions by being incorporated by viable cells into a colorimetric product that can be measured at 490 nm, was added to 100 μL of culture medium, incubated at 37° C. […] absorbance was measured at 490 nm at 1.5 hours, 2.5 hours, and 4.5 hours.

In a further series the test system is Hdac2-/- MEFs. Put plainly: miR302/367 reprogramming of Hdac2-/- MEFs. The format is cell-based, mouse. As to conditions: Hdac2-/- MEFs transduced with miR302/367. The procedure:
as §1
The Hdac2p^flox/flox allele was generated by flanking exon 2 with loxP recombination sites using the targeting vector depicted in FIG. 19A. […]

The next series relates to Oct4-GFP MEFs. Put plainly: iPS reprogramming of Oct4-GFP MEFs: clones with ES like morphology and Oct4-GFP positive clones. Type of series: cell-based, mouse. The conditions noted are these: day 10 of reprogramming; culture up to three weeks. The procedure:
as §1

`CCCC(CCC)C(=O)O` [VPA, valproic acid]: in series [1], the “requirement for and effect of VPA on reprogramming human fibroblasts by miR302/367” value was “not required; also recorded: did not affect the efficiency of reprogramming”. The “Hdac1 protein expression level” value with Hdac1 is “unchanged”. In addition, the Hdac2 protein level entry in the series on Hdac2 is on record as “caused degradation of Hdac2 protein”. Besides, the “Hdac3 protein expression level” value in the series with Hdac3 is reported as “unchanged”. Also, the “proliferation rates in MEFs” value in the series on MEFs is given as “did not affect proliferation rates”. In addition, the “effect of VPA addition on number of iPS cell clones” value in the series with Hdac2-/- MEFs is “did not change the number of iPS cell clones”.
With “miR367: miR367 expressed alone; sequence AAUUGCACUUUAGCAAUGGUGA (SEQ ID NO: 8) (listed as Homo sapiens)”, in the series with Oct4-GFP MEFs, the “iPS cell colony generation in MEFs” value is reported as “did not reprogram fibroblasts”.
